{"source": "patent EP1231468A1", "about": "“METHOD FOR DETECTING EXOGENOUS ENDOCRINE DISRUPTING CHEMICAL AND DETECTION APPARATUS” (Central Research Institute of Electric Power Industry, priority 1999, dated 2001)", "target": "T1, human estrogen receptor α (Homo sapiens, UniProt P03372)", "T1 sequence (P03372 1-595)": "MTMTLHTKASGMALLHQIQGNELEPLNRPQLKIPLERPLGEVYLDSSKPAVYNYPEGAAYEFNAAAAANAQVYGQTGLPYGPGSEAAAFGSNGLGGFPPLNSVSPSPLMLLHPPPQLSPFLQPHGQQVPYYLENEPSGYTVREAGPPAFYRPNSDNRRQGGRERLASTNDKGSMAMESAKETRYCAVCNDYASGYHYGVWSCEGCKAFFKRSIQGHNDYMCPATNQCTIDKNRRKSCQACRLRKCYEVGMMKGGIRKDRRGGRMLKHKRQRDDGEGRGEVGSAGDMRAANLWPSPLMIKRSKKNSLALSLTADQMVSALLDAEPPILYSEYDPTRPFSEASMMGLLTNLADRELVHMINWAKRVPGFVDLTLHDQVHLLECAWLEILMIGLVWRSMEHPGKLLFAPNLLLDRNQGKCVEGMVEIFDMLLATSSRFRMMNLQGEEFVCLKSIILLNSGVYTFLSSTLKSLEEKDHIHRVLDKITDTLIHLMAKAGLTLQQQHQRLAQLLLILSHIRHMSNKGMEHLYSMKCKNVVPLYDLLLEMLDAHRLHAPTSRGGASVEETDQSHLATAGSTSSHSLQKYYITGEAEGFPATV", "assay": "Competitive bonding of E2-BSA-CY5 and test substance to immobilized estrogen receptor, flow-type fluorescence detection", "type": "binding", "conditions": "for range of concentration in which reduction in fluorescence intensity can be confirmed / substance can be detected: bonding inhibition ratio against concentration, Fig. 4, Fig. 6; for inhibition of bonding of E2-BSA-CY5 to the receptor (reduction in fluorescence intensity): various concentrations added to E2-BSA-CY5 of fixed concentration, Fig. 3, Fig. 5", "procedure": "As an estrogen receptor, a human estrogen receptor α [manufactured by PanVela Corporation, Drive Madison, Wisconsin, USA] was used.\nImmobilization of the estrogen receptor to a carrier (beads) was carried out by natural adsorption. […] 0.2 g of the beads was put in a small test tube, and suspended in 1 ml of a buffer for bonding (50 mM tris HCl, 500 mM KCl, 2mM DDT, 1mM EDTA, 10% glycerol, pH 7.8). 70 pmol of the estrogen receptor was put in this suspension, and blended for 30 minutes at a room temperature. Thereafter, 100 µl of bovine serum albumin was added so as to obtain the final concentration of 1 mg/ml. After addition, it is further blended for 30 minutes at a room temperature. Subsequently, the particles were washed by using the same buffer, again suspended in 30 ml of the same buffer, and used for measurement. It is to be noted that, as beads for comparison in which the estrogen receptor is not immobilized, those obtained by adding only bovine serum albumin to the beads were prepared by the similar operation.\nIn order to provide this fluorescence dye, a CY5 labeling kit [manufactured by Amersham Life Science, Arlington Heights, Illinois, USA] was used. The 17β-estradiol-bovine serum albumin having the fluorescence dye given thereto and the free fluorescence dye were partitioned by the gel filtration chromatography.\nFor measurement of a fluorescence intensity, a detector having a flow type fluorophotometer [manufactured by Sapidyne Instrument Inc., Boise, Idaho, USA] incorporated therein was used. […] The fluorescence intensity can be measured in units of an electrical signal by an excitation light source 3 and the detector 4 arranged with a glass cell 1 having a diameter of 1.5 mm and a length of 30 mm therebetween. The immobilized estrogen receptor 2 having the shape of beads is filled in the glass cell 1 by being banked up and laminated by a screen S consisting of 50 µm nylon mesh set in the glass cell 1. […] The material remaining between beads, which is not bonded to the receptor 2, is discharged from the direction indicated by an arrow b by leading only the buffer at a speed of 1.5 ml/min. Thereafter, the remaining fluorescence intensity was evaluated as a quantity of bonding. Specifically, the buffer for bonding was diluted with E2-BSA-CY5 so as to obtain approximately 400 ng/ml. It is to be noted that this concentration was appropriately adjusted in accordance with a ratio of provision of the fluorescence in E2-BSA-CY5. The same quantity of the buffer for bonding in which a natural hormone or a chemical substance with the already-known concentration was dissolved was added to the diluted solution and left to take its own course at a room temperature for 30 minutes. Incidentally, in case of a water-insoluble material, it was completely dissolved in dimethyl sulfoxide and then appropriately diluted. Further, it was left to stand and used for measurement."}
{"molecule": "CC(C)(c1ccc(O)cc1)c1ccc(O)cc1", "note": "[bisphenol A]", "values": [{"measurement": "range of concentration in which reduction in fluorescence intensity can be confirmed / substance can be detected", "result": "10^-8 to 10^-6 M"}, {"measurement": "inhibition of bonding of E2-BSA-CY5 to the receptor (reduction in fluorescence intensity)", "result": "the fluorescence intensity was lowered"}]}
{"molecule": "C[C@]12CC[C@H]3[C@@H](CCC4=CC(=O)CC[C@@]43C)[C@@H]1CC[C@@H]2O", "note": "[testosterone, reference compound]", "values": [{"measurement": "inhibition of bonding of E2-BSA-CY5 to the receptor (reduction in fluorescence intensity)", "result": "did not inhibit"}]}
{"molecule": "nonylphenol", "values": [{"measurement": "range of concentration in which reduction in fluorescence intensity can be confirmed / substance can be detected", "result": "10^-9 to 10^-5 M"}, {"measurement": "inhibition of bonding of E2-BSA-CY5 to the receptor (reduction in fluorescence intensity)", "result": "the fluorescence intensity was lowered"}]}
